“Also recorded” adds a separate entry of the source.
What was measured:
rats = details: cited from earlier work; for osteosarcoma on long-term usage: rats
[1] = men and women who can lose 20-30% of cortical and cancellous bone; cited from earlier work
[2] = system: MC-3T3 osteoblastic cells and MLO-Y4 osteocytic cells; assay: Gene expression in bone cell lines by real-time PCR (Example 7); type: cell-based; details: 100 nM PTH polypeptide, 1 or 3 hours
Method: Full-length recombinant black bear PTH (residues 1-84) is produced and its effects on levels of gene expression in bone cell lines (MC-3T3 osteoblastic cells and MLO-Y4 osteocytic cells) are investigated and are compared to results obtained using recombinant human PTH 1-84. Equivalent experiments are conducted using subfragments of black bear and human PTH, the subfragments including amino acid residues 1-34, 1-36, 7-84, 11-84, and 41-52 of the full-length (1-84) mature protein. For some experiments, black bear and human PTH polypeptides are synthesized with solid-phase methods.
To determine the effect of black bear and human PTH on regulation of bone matrix, transcriptional regulatory, anti-apoptosis (Bcl-2) genes, and the pro-apoptosis gene Bax, cells are cultured for 1 or 3 hours with human or bear PTH 1-84 or a subfragment. Gene expression is quantified with real-time PCR. […]
Reverse transcription to generate cDNA is performed using Superscript II reverse transcriptase (Invitrogen, Carlsbad, Calif.), and 0.5 μg Oligo(dT) 12-18 primer at 42° C. for 20 minutes, 50° C. for 10 minutes and 42° C. for 1 hour in a gradient thermocycler (Mastercycler gradient, Eppendorf, Westbury, N.Y.). […] Gene expression is determined using the relative standard curve method normalized to the geometric mean of the three housekeeping genes. […]

MC-3T3 cells = assay: Gene expression by real-time PCR in MC-3T3 cells incubated with synthetic bear or human PTH 1-34 (Example 11); type: cell-based; details: 100 nM; for expression ratio of Bax/Bcl-2: 3 hours, MC-3T3 cells (FIG. 7, n=4); for expression of type I collagen / expression of osteocalcin: 6 hours, MC-3T3 cells; for expression of type I collagen: compared to the vehicle control; for expression of osteocalcin: compared to the vehicle control (FIG. 6, n=2)
Method: MC-3T3 cells were incubated in vehicle or 100 nM synthetic bear or human PTH 1-34 for 3 or 6 hours (n=2 or 4). Total RNA was isolated, and cDNA was generated with reverse transcription. Primers for the bone matrix proteins type I collagen and osteocalcin, the pro-apoptotic protein Bax, the anti-apoptotic protein Bcl-2, and the housekeeping genes Gapdh, β-actin, and cyclophillin were designed using PrimerQuest software (Integrated DNA Technologies, Coralville, Iowa). Real-time PCR was performed using the Mx3000P real-time PCR system (Stratagene, LaJolla, Calif.). All samples were measured in duplicate. Gene expression was determined using the relative standard curve method normalized to the geometric mean of the three housekeeping genes (Gapdh, β-actin, and cyclophillin). Apoptosis-related genes were analyzed as the expression ratio of Bax/Bcl-2, since a decrease in this ratio is associated with decreased apoptosis in vitro.

ovariectomized rats = details: cited from earlier work
procollagen-1 mRNA = details: Nasu et al., 1998; cited from earlier work
[3] = humans, once daily; cited from earlier work

Molecule: CC[C@H](C)[C@H](NC(=O)[C@H](CCC(=O)O)NC(=O)[C@H](CO)NC(=O)[C@@H](NC(=O)[C@@H](N)CO)C(C)C)C(=O)N[C@@H](CCC(N)=O)C(=O)N[C@@H](CC(C)C)C(=O)N[C@@H](CCSC)C(=O)N[C@@H](Cc1cnc[nH]1)C(=O)N[C@@H](CC(N)=O)C(=O)N[C@@H](CC(C)C)C(=O)NCC(=O)N[C@@H](CCCCN)C(=O)N[C@@H](Cc1cnc[nH]1)C(=O)N[C@@H](CC(C)C)C(=O)N[C@@H](CC(N)=O)C(=O)N[C@@H](CO)C(=O)N[C@@H](CCSC)C(=O)N[C@@H](CCC(=O)O)C(=O)N[C@@H](CCCN=C(N)N)C(=O)N[C@H](C(=O)N[C@@H](CCC(=O)O)C(=O)N[C@@H](Cc1c[nH]c2ccccc12)C(=O)N[C@@H](CC(C)C)C(=O)N[C@@H](CCCN=C(N)N)C(=O)N[C@@H](CCCCN)C(=O)N[C@@H](CCCCN)C(=O)N[C@@H](CC(C)C)C(=O)N[C@@H](CCC(N)=O)C(=O)N[C@@H](CC(=O)O)C(=O)N[C@H](C(=O)N[C@@H](Cc1cnc[nH]1)C(=O)N[C@@H](CC(N)=O)C(=O)N[C@@H](Cc1ccccc1)C(=O)O)C(C)C)C(C)C [LY333334]
- osteosarcoma on long-term usage (rats): generates osteosarcoma

Molecule: ALX1-11: recombinant human PTH 1-84 (NPS Pharmaceuticals), under consideration for FDA approval
- osteosarcoma on long-term usage (rats): generates osteosarcoma
- lost bone recovered during suggested treatment regimen [1]: 8%

Molecule: bear PTH 1-34: synthetic polypeptide of amino acid residues 1-34 of black bear parathyroid hormone, SEQ ID NO: 2 (SVSEIQFMHNLGKHLSSMERVEWLRKKLQDVHNF; listed as Ursus americanus)
- gene expression (bone matrix, transcriptional regulatory and transcriptional activator genes) [2]: upregulates
- expression ratio of Bax/Bcl-2 (MC-3T3 cells): decreased
- expression ratio of Bax/Bcl-2 (MC-3T3 cells; listed as black bear PTH 1-34): decreases
- expression of type I collagen (MC-3T3 cells): did not affect
- expression of osteocalcin (MC-3T3 cells): substantially upregulated
- expression of osteocalcin (MC-3T3 cells; listed as black bear PTH 1-34): upregulate

Molecule: bovine PTH 1-34: bovine PTH 1-34; rat PTH 1-34 has 5 amino acid sequence differences from it (AVSEIQFMHNLGKHLSSMERVEWLRKKLQDVHNF; Parathyroid hormone; UniProt P01268 32-65, looked up, fragment)
- greater bone formation response than to rat PTH 1-34 (ovariectomized rats; daily 25 μg injections): 25%
- greater increase in bone volume fraction during treatment (ovariectomized rats; injection, versus rat PTH 1-34): 37%

Molecule: human PTH 1-34: synthetic human PTH 1-34, the 1-34 region of human PTH, used as comparator (SVSEIQLMHNLGKHLNSMERVEWLRKKLQDVHNF; Parathyroid hormone; UniProt P01270 32-65, looked up, fragment)
- production of procollagen-1 mRNA (procollagen-1 mRNA): down-regulates
- expression ratio of Bax/Bcl-2 (MC-3T3 cells): increases
- expression of type I collagen (MC-3T3 cells): did not affect
- expression of osteocalcin (MC-3T3 cells): substantially upregulated; also recorded: upregulate

Molecule: human PTH 1-84: full-length human parathyroid hormone, residues 1-84
- rate of carcinogenicity compared with human PTH 1-34 (rats; preliminary results): lower

B1: Human PTH: human parathyroid hormone given once daily to humans (protein, UniProt P01270 32-115, looked up)
Parathyroid hormone: SVSEIQLMHNLGKHLNSMERVEWLRKKLQDVHNFVALGAPLAPRDAGSQRPRKKEDNVLVESHEKSLGEADKADVNVLTKAKSQ
modifications: Parathyroid hormone
- bone mass [3]: increases
- fracture incidence [3]: decreases

— US7994129B2, “Methods of using black bear parathyroid hormone” (Michigan Technological University, priority 2005, dated 2011)
